Test: mn = molality of the nth substance listed, in mol/kg
Conditions: 350 kPa, Liquid, Extra sensitive DSC

N[C@@H](CO)C(=O)O [L-serine] + O
apparent molar heat capacity [J/K/mol]
Conditions	m1 = 0.015	m1 = 0.0302	m1 = 0.05	m1 = 0.08	m1 = 0.1249	m1 = 0.2501	m1 = 0.3717	m1 = 0.7002	m1 = 1.001
278.15 K	58.9	59.2	58.9	60.7	62.4	67.93	72.64	84.65	94.04
283.15 K	78.9	79.3	79.2	80.6	82.1	86.36	90.3	99.99	108.37
288.15 K	94.8	95.4	95.2	96.5	97.7	101.28	104.58	112.69	120.13
293.15 K	108	108.7	108.4	109.5	110.5	113.56	116.4	123.33	129.97
298.15 K	118.7	119.4	119.2	120.1	120.9	123.63	126.11	132.2	138.25
303.15 K	127.9	128.6	128.4	129.2	129.9	132.24	134.43	139.82	145.45
308.15 K	135.6	136.4	136.2	136.9	137.5	139.63	141.58	146.36	151.62
313.15 K	142.6	143.1	142.9	143.5	144.1	145.98	147.77	152.15	157.1
318.15 K	148.7	148.9	148.6	149.2	149.7	151.4	153.04	157.06	161.73
323.15 K	153.9	154.1	153.8	154.2	154.6	156.2	157.74	161.47	165.95
328.15 K	158.6	158.6	158.3	158.7	159	160.4	161.86	165.32	169.63
333.15 K	163.4	163.1	162.2	162.6	162.9	164.2	165.59	168.83	173.01
338.15 K	167.3	166.8	165.8	166.2	166.4	167.6	168.91	172	176.07
343.15 K	170.4	169.9	168.8	169	169.3	170.5	171.75	174.71	178.65
348.15 K	173.7	172.4	171.4	171.6	171.9	173.1	174.28	177.14	181.02
353.15 K	176	174.9	173.8	174	174.3	175.4	176.6	179.33	183.15
358.15 K	178	176.9	176	176	176.4	177.4	178.6	181.28	185.03
363.15 K	179	178.4	177.6	177.7	178.1	179.1	180.3	182.94	186.63
368.15 K	181	179.7	178.9	179	179.6	180.6	181.8	184.38	188
373.15 K	181	180.9	180.2	180.1	180.7	181.8	183	185.63	189.22
378.15 K	181	181.7	181	180.7	181.7	182.9	183.9	186.55	190.12
383.15 K	182	182.2	181.8	181.3	182.4	183.8	184.8	187.46	190.98
388.15 K	183	182.6	182.7	181.4	183	184.4	185.4	188.07	191.6
393.15 K	183	182.6	183.3	181.2	183.4	184.8	185.7	188.6	192.04

— the NIST ThermoML archive (doi:10.1016/j.jct.2005.07.019)
